Test results from patent publication US7488425B2, “Method for photolyzing organic matter and method for treating wastewater” (Nisshinbo Industries, Inc., priority 2004, dated 2009).
Where a name gives a salt, the structure may show the parent alone.

Columns and labels:
[1] = Mixing with simple distilled water (phase separation, hydrophobicity); format: physicochemical
Source text: As used herein, “hydrophobic” refers to the property of, after being mixed or stirred with water, separating again into two phases on standing. While it suffices for the hydrophobic ionic liquid to have this quality, when the above photolytic process is employed for the subsequently described wastewater treatment or the like, a hydrophobic ionic liquid with a lower solubility in water will result in a smaller loss of ionic liquid during wastewater treatment and enable treated water having a higher degree of cleanliness to be obtained.
(§1) The solubility in simple distilled water (25° C.) was about 1.5 wt %.

[2] = Solubility of the ionic liquid in simple distilled water; format: physicochemical; conditions: 25° C.
Procedure: as §1

Structure (SMILES) | behaviour when mixed with simple distilled water [1] | solubility in simple distilled water [2]
CCn1cc[n+](C)c1.O=S(=O)([O-])C(F)(F)F [EMIMTfO, 1-ethyl-3-methylimidazolium trifluoromethanesulfonate, reference compound] | forms a homogeneous phase | 
CC[N+](C)(CC)CCOC [ionic liquid (2), Bis(trifluoromethanesulfonyl)imide Salt of N,N-Diethyl-N-methyl-N-(2-methoxyethyl)ammonium] | separated into two phases | about 1.5 wt %
